Test results taken from BindingDB's records for doi:10.1016/s0960-894x(00)00312-7 (Signal Pharmaceuticals, 2000).

Target: Protein c-Fos/Transcription factor Jun (Homo sapiens, UniProt P05412+P01100)
Assay: Inhibition of AP-1 (activator protein-1) mediated transcriptional activation in Jurkat T-cells

Sequence of Protein c-Fos/Transcription factor Jun (P05412 whole entry): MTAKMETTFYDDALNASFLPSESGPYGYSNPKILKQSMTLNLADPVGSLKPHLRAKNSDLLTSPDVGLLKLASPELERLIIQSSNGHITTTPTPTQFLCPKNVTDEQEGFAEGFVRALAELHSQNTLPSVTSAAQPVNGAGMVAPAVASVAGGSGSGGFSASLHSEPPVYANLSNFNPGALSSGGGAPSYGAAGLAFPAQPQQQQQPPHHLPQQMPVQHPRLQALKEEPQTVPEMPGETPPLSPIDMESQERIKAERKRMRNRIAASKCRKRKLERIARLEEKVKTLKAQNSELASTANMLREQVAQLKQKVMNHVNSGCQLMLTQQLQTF
Sequence of Protein c-Fos/Transcription factor Jun (P01100 whole entry): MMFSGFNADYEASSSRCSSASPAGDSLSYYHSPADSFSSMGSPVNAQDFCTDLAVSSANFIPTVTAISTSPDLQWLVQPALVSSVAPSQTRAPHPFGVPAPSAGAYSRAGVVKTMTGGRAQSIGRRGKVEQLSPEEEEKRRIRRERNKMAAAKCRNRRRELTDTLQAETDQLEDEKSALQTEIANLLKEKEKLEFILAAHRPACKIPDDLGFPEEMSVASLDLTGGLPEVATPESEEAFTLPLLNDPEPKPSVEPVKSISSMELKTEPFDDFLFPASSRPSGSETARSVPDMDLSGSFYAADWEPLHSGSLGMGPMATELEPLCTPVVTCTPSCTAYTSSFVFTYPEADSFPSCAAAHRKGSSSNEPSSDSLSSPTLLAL

SMILES | IC50 [µM]
CCOC(=O)c1cnc(Cc2ccccc2)nc1NN1C(=O)C=C(C)C1=O [ethyl 2-benzyl-4-(3-methyl-2,5-dioxo-2H-pyrrol-1(5H)-ylamino)pyrimidine-5-carboxylate] | 7
CCOC(=O)c1cnc(CC)nc1N(C)N1C(=O)C=C(C)C1=O [ethyl 2-ethyl-4-(methyl(3-methyl-2,5-dioxo-2H-pyrrol-1(5H)-yl)amino)pyrimidine-5-carboxylate] | 10
CCOC(=O)c1cnc(C(F)(F)F)nc1NN1C(=O)C=CC1=O [ethyl 4-(2,5-dioxo-2H-pyrrol-1(5H)-ylamino)-2-(trifluoromethyl)pyrimidine-5-carboxylate] | 10
CCOC(=O)c1cnc(C(F)(F)F)nc1NN1C(=O)C(C)=C(C)C1=O [ethyl 4-(3,4-dimethyl-2,5-dioxo-2H-pyrrol-1(5H)-ylamino)-2-(trifluoromethyl)pyrimidine-5-carboxylate] | 10
CCOC(=O)c1cnc(-c2ccncc2)nc1NN1C(=O)C=C(C)C1=O [ethyl 4-(3-methyl-2,5-dioxo-2H-pyrrol-1(5H)-ylamino)-2-(pyridin-4-yl)pyrimidine-5-carboxylate] | 6
CCOC(=O)c1cnc(-c2cnc3ccccc3c2)nc1NN1C(=O)C=C(C)C1=O [ethyl 4-(3-methyl-2,5-dioxo-2H-pyrrol-1(5H)-ylamino)-2-(quinolin-3-yl)pyrimidine-5-carboxylate] | 6
CCOC(=O)c1cnc(Oc2ccccc2)nc1NN1C(=O)C=C(C)C1=O [ethyl 4-(3-methyl-2,5-dioxo-2H-pyrrol-1(5H)-ylamino)-2-phenoxypyrimidine-5-carboxylate] | 15
CCOC(=O)c1cnc(-c2cccs2)nc1N(C)N1C(=O)C=C(C)C1=O [ethyl 4-(methyl(3-methyl-2,5-dioxo-2H-pyrrol-1(5H)-yl)amino)-2-(thiophen-2-yl)pyrimidine-5-carboxylate] | 1
CCOC(=O)c1cnc(-c2ccccc2)nc1N(C)N1C(=O)C=C(C)C1=O [ethyl 4-(methyl(3-methyl-2,5-dioxo-2H-pyrrol-1(5H)-yl)amino)-2-phenylpyrimidine-5-carboxylate] | 2

Results, then the compound that gave them:

IC50 [µM] | SMILES
0.3 | CCOC(=O)c1cnc(-c2ccc(Cl)cc2)nc1NN1C(=O)C=C(C)C1=O [ethyl 2-(4-chlorophenyl)-4-(3-methyl-2,5-dioxo-2H-pyrrol-1(5H)-ylamino)pyrimidine-5-carboxylate]
0.7 | CCOC(=O)c1cnc(-c2ccc(F)cc2)nc1NN1C(=O)C=C(C)C1=O [ethyl 2-(4-fluorophenyl)-4-(3-methyl-2,5-dioxo-2H-pyrrol-1(5H)-ylamino)pyrimidine-5-carboxylate]
0.3 | CCOC(=O)c1cnc(-c2ccc(Cl)s2)nc1NN1C(=O)C=C(C)C1=O [ethyl 2-(5-chlorothiophen-2-yl)-4-(3-methyl-2,5-dioxo-2H-pyrrol-1(5H)-ylamino)pyrimidine-5-carboxylate]
0.7 | CCOC(=O)c1cnc(C(=O)c2ccco2)nc1NN1C(=O)C=C(C)C1=O [ethyl 2-(furan-2-carbonyl)-4-(3-methyl-2,5-dioxo-2H-pyrrol-1(5H)-ylamino)pyrimidine-5-carboxylate]
1 | CCOC(=O)c1cnc(C(C)(C)C)nc1NN1C(=O)C=C(C)C1=O [ethyl 2-tert-butyl-4-(3-methyl-2,5-dioxo-2H-pyrrol-1(5H)-ylamino)pyrimidine-5-carboxylate]
1 | CCOC(=O)c1cnc(Sc2ccccc2)nc1NN1C(=O)C=C(C)C1=O [ethyl 4-(3-methyl-2,5-dioxo-2,5-dihydro-1H-pyrrol-1-ylamino)-2-(phenylthio)pyrimidine-5-carboxylate]
0.02 | CCOC(=O)c1cnc(-c2cccs2)nc1NN1C(=O)C=C(C)C1=O [ethyl 4-(3-methyl-2,5-dioxo-2H-pyrrol-1(5H)-ylamino)-2-(thiophen-2-yl)pyrimidine-5-carboxylate]
0.1 | CCOC(=O)c1cnc(-c2ccsc2)nc1NN1C(=O)C=C(C)C1=O [ethyl 4-(3-methyl-2,5-dioxo-2H-pyrrol-1(5H)-ylamino)-2-(thiophen-3-yl)pyrimidine-5-carboxylate]
